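Interpolation was linear, between the two tested concentrations surrounding the appropriate level; five concentrations were tested over 48 hours in 96-well plates. TGI is the concentration that stops growth completely.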
Experiments:
Experiment in all cases: DTP human tumour cell line panel, 48 h
786-0 renal = tested on: 786-0 renal
A549 NSCLC = tested on: A549 NSCLC
ACHN renal = tested on: ACHN renal
CAKI-1 renal = tested on: CAKI-1 renal
CCRF-CEM leukemia = tested on: CCRF-CEM leukemia
COLO 205 colon = tested on: COLO 205 colon
DLD-1 colon = tested on: DLD-1 colon
DMS 114 small cell lung = tested on: DMS 114 small cell lung
DMS 273 small cell lung = tested on: DMS 273 small cell lung
EKVX NSCLC = tested on: EKVX NSCLC
HCC-2998 colon = tested on: HCC-2998 colon
HCT-116 colon = tested on: HCT-116 colon
HCT-15 colon = tested on: HCT-15 colon
HL-60(TB) leukemia = tested on: HL-60(TB) leukemia
HOP-62 NSCLC = tested on: HOP-62 NSCLC
HT29 colon = tested on: HT29 colon
IGROV1 ovarian = tested on: IGROV1 ovarian
K-562 leukemia = tested on: K-562 leukemia
KM12 colon = tested on: KM12 colon
KM20L2 colon = tested on: KM20L2 colon
LOX IMVI melanoma = tested on: LOX IMVI melanoma
LXFL 529 NSCLC = tested on: LXFL 529 NSCLC
M14 melanoma = tested on: M14 melanoma
M19-MEL melanoma = tested on: M19-MEL melanoma
MALME-3M melanoma = tested on: MALME-3M melanoma
MOLT-4 leukemia = tested on: MOLT-4 leukemia
NCI-H226 lung = tested on: NCI-H226 lung
NCI-H23 lung = tested on: NCI-H23 lung
NCI-H460 lung = tested on: NCI-H460 lung
NCI-H522 lung = tested on: NCI-H522 lung
OVCAR-3 ovarian = tested on: OVCAR-3 ovarian
OVCAR-4 ovarian = tested on: OVCAR-4 ovarian
OVCAR-5 ovarian = tested on: OVCAR-5 ovarian
OVCAR-8 ovarian = tested on: OVCAR-8 ovarian
RPMI-8226 leukemia = tested on: RPMI-8226 leukemia
RXF 393 renal = tested on: RXF 393 renal
RXF-631 renal = tested on: RXF-631 renal
SF-268 CNS = tested on: SF-268 CNS
SF-295 CNS = tested on: SF-295 CNS
SF-539 CNS = tested on: SF-539 CNS
SK-MEL-2 melanoma = tested on: SK-MEL-2 melanoma
SK-MEL-28 melanoma = tested on: SK-MEL-28 melanoma
SK-OV-3 ovarian = tested on: SK-OV-3 ovarian
SN12C renal = tested on: SN12C renal
SNB-19 CNS = tested on: SNB-19 CNS
SNB-75 CNS = tested on: SNB-75 CNS
SNB-78 CNS = tested on: SNB-78 CNS
SR leukemia = tested on: SR leukemia
SW-620 colon = tested on: SW-620 colon
TK-10 renal = tested on: TK-10 renal
U251 CNS = tested on: U251 CNS
UACC-257 melanoma = tested on: UACC-257 melanoma
UACC-62 melanoma = tested on: UACC-62 melanoma
UO-31 renal = tested on: UO-31 renal
XF 498 CNS = tested on: XF 498 CNS
A498 renal = tested on: A498 renal
HOP-92 NSCLC = tested on: HOP-92 NSCLC
SK-MEL-5 melanoma = tested on: SK-MEL-5 melanoma

`CCC1=CCN(c2ccc(C)cc2)OC1c1ccc(OC)cc1` (centres undefined) showed a TGI (786-0 renal) of over 100 µM, a TGI (A549 NSCLC) of over 100 µM and a TGI (ACHN renal) of over 100 µM. For the same compound, the TGI (CAKI-1 renal) was over 100 µM, the TGI (CCRF-CEM leukemia) was over 100 µM and the TGI (COLO 205 colon) was over 100 µM. It also gave a TGI (DLD-1 colon) of over 100 µM, a TGI (DMS 114 small cell lung) of over 100 µM and a TGI (DMS 273 small cell lung) of over 100 µM. For the same compound, the TGI (EKVX NSCLC) was over 100 µM, the TGI (HCC-2998 colon) was over 100 µM and the TGI (HCT-116 colon) was over 100 µM. The TGI (HCT-15 colon) was over 100 µM, the TGI (HL-60(TB) leukemia) was over 100 µM and the TGI (HOP-62 NSCLC) was over 100 µM. It also gave a TGI (HT29 colon) of over 100 µM, a TGI (IGROV1 ovarian) of over 100 µM and a TGI (K-562 leukemia) of over 100 µM. The TGI (KM12 colon) was over 100 µM, the TGI (KM20L2 colon) was over 100 µM and the TGI (LOX IMVI melanoma) was over 100 µM. For the same compound, the TGI (LXFL 529 NSCLC) was over 100 µM, the TGI (M14 melanoma) was over 100 µM and the TGI (M19-MEL melanoma) was over 100 µM. The TGI (MALME-3M melanoma) was over 100 µM, the TGI (MOLT-4 leukemia) was over 100 µM and the TGI (NCI-H226 lung) was over 100 µM. It also gave a TGI (NCI-H23 lung) of over 100 µM, a TGI (NCI-H460 lung) of over 100 µM and a TGI (NCI-H522 lung) of over 100 µM. The TGI (OVCAR-3 ovarian) was over 100 µM, the TGI (OVCAR-4 ovarian) was over 100 µM and the TGI (OVCAR-5 ovarian) was over 100 µM. For the same compound, the TGI (OVCAR-8 ovarian) was over 100 µM, the TGI (RPMI-8226 leukemia) was over 100 µM and the TGI (RXF 393 renal) was over 100 µM. It also gave a TGI (RXF-631 renal) of over 100 µM, a TGI (SF-268 CNS) of over 100 µM and a TGI (SF-295 CNS) of over 100 µM. For the same compound, the TGI (SF-539 CNS) was over 100 µM, the TGI (SK-MEL-2 melanoma) was over 100 µM and the TGI (SK-MEL-28 melanoma) was over 100 µM. It also gave a TGI (SK-OV-3 ovarian) of over 100 µM, a TGI (SN12C renal) of over 100 µM and a TGI (SNB-19 CNS) of over 100 µM. It also gave a TGI (SNB-75 CNS) of over 100 µM, a TGI (SNB-78 CNS) of over 100 µM and a TGI (SR leukemia) of over 100 µM. It also gave a TGI (SW-620 colon) of over 100 µM, a TGI (TK-10 renal) of over 100 µM and a TGI (U251 CNS) of over 100 µM. For the same compound, the TGI (UACC-257 melanoma) was over 100 µM, the TGI (UACC-62 melanoma) was over 100 µM and the TGI (UO-31 renal) was over 100 µM. The TGI (XF 498 CNS) was over 100 µM.
Work on `Cc1ccc(S(=O)(=O)C(CC(NC=O)S(=O)(=O)c2ccc(C)cc2)NC=O)cc1` (centres undefined) yielded a TGI (786-0 renal) of over 100 µM, a TGI (A498 renal) of over 100 µM and a TGI (A549 NSCLC) of over 100 µM. The TGI (CAKI-1 renal) was over 100 µM, the TGI (CCRF-CEM leukemia) was over 100 µM and the TGI (COLO 205 colon) was over 100 µM. The TGI (DLD-1 colon) was over 100 µM, the TGI (DMS 114 small cell lung) was over 100 µM and the TGI (DMS 273 small cell lung) was over 100 µM. For the same compound, the TGI (EKVX NSCLC) was over 100 µM, the TGI (HCC-2998 colon) was over 100 µM and the TGI (HCT-116 colon) was over 100 µM. For the same compound, the TGI (HCT-15 colon) was over 100 µM, the TGI (HL-60(TB) leukemia) was over 100 µM and the TGI (HOP-62 NSCLC) was over 100 µM. The TGI (HOP-92 NSCLC) was over 100 µM, the TGI (HT29 colon) was over 100 µM and the TGI (IGROV1 ovarian) was over 100 µM. For the same compound, the TGI (K-562 leukemia) was over 100 µM, the TGI (KM12 colon) was over 100 µM and the TGI (KM20L2 colon) was over 100 µM. It also gave a TGI (LOX IMVI melanoma) of over 100 µM, a TGI (LXFL 529 NSCLC) of over 100 µM and a TGI (M14 melanoma) of over 100 µM. The TGI (M19-MEL melanoma) was over 100 µM, the TGI (MALME-3M melanoma) was over 100 µM and the TGI (MOLT-4 leukemia) was over 100 µM. For the same compound, the TGI (NCI-H226 lung) was over 100 µM, the TGI (NCI-H23 lung) was over 100 µM and the TGI (NCI-H460 lung) was over 100 µM. It also gave a TGI (NCI-H522 lung) of over 100 µM, a TGI (OVCAR-3 ovarian) of over 100 µM and a TGI (OVCAR-4 ovarian) of over 100 µM. The TGI (OVCAR-8 ovarian) was over 100 µM, the TGI (RPMI-8226 leukemia) was over 100 µM and the TGI (RXF 393 renal) was over 100 µM. For the same compound, the TGI (RXF-631 renal) was over 100 µM, the TGI (SF-268 CNS) was over 100 µM and the TGI (SF-295 CNS) was over 100 µM. It also gave a TGI (SF-539 CNS) of over 100 µM, a TGI (SK-MEL-5 melanoma) of over 100 µM and a TGI (SK-OV-3 ovarian) of over 100 µM. For the same compound, the TGI (SN12C renal) was over 100 µM, the TGI (SNB-19 CNS) was over 100 µM and the TGI (SNB-75 CNS) was over 100 µM. For the same compound, the TGI (SNB-78 CNS) was over 100 µM, the TGI (SR leukemia) was over 100 µM and the TGI (SW-620 colon) was over 100 µM. The TGI (TK-10 renal) was over 100 µM, the TGI (U251 CNS) was over 100 µM and the TGI (UACC-257 melanoma) was over 100 µM. It also gave a TGI (UACC-62 melanoma) of over 100 µM, a TGI (UO-31 renal) of over 100 µM and a TGI (XF 498 CNS) of over 100 µM.
`O=C(Cc1ccc(F)cc1)NC1=C(Cl)C(=O)c2ccccc2C1=O` gave a TGI (786-0 renal) of 19.5 µM, a TGI (A549 NSCLC) of 16.4 µM and a TGI (ACHN renal) of 3.4 µM. For the same compound, the TGI (CAKI-1 renal) was 19.8 µM, the TGI (CCRF-CEM leukemia) was over 100 µM and the TGI (COLO 205 colon) was 12.7 µM. The TGI (DLD-1 colon) was 4.24 µM, the TGI (DMS 114 small cell lung) was 1.8 µM and the TGI (DMS 273 small cell lung) was 13.6 µM. For the same compound, the TGI (EKVX NSCLC) was 16 µM, the TGI (HCC-2998 colon) was 16 µM and the TGI (HCT-116 colon) was 11.9 µM. It also gave a TGI (HCT-15 colon) of 7.43 µM, a TGI (HL-60(TB) leukemia) of 0.39 µM and a TGI (HOP-62 NSCLC) of 44.6 µM. The TGI (HOP-92 NSCLC) was 3.68 µM, the TGI (HT29 colon) was 35.4 µM and the TGI (IGROV1 ovarian) was 6.63 µM. The TGI (KM12 colon) was 14.4 µM, the TGI (KM20L2 colon) was 34.8 µM and the TGI (LOX IMVI melanoma) was 9.05 µM. It also gave a TGI (LXFL 529 NSCLC) of 10.5 µM, a TGI (M14 melanoma) of 12.4 µM and a TGI (M19-MEL melanoma) of 14.7 µM. The TGI (MALME-3M melanoma) was 7.89 µM, the TGI (NCI-H226 lung) was 12.7 µM and the TGI (NCI-H23 lung) was 5.94 µM. The TGI (NCI-H460 lung) was 13.8 µM, the TGI (NCI-H522 lung) was 1.25 µM and the TGI (OVCAR-3 ovarian) was 9.33 µM. It also gave a TGI (OVCAR-4 ovarian) of 9.28 µM, a TGI (OVCAR-5 ovarian) of 13.1 µM and a TGI (OVCAR-8 ovarian) of 4.05 µM. The TGI (RPMI-8226 leukemia) was 4.14 µM, the TGI (RXF 393 renal) was 4.11 µM and the TGI (RXF-631 renal) was over 50 µM. It also gave a TGI (SF-268 CNS) of 15.1 µM, a TGI (SF-295 CNS) of 12 µM and a TGI (SF-539 CNS) of 5.02 µM. The TGI (SK-MEL-2 melanoma) was 6.33 µM, the TGI (SK-MEL-28 melanoma) was 11.6 µM and the TGI (SK-MEL-5 melanoma) was 11.3 µM. The TGI (SK-OV-3 ovarian) was 58.3 µM, the TGI (SN12C renal) was 13.8 µM and the TGI (SNB-19 CNS) was over 100 µM. It also gave a TGI (SNB-75 CNS) of 18.3 µM, a TGI (SNB-78 CNS) of 34.7 µM and a TGI (SR leukemia) of 3.34 µM. The TGI (SW-620 colon) was 5.76 µM, the TGI (TK-10 renal) was 14.5 µM and the TGI (U251 CNS) was 11.5 µM. The TGI (UACC-257 melanoma) was 6.56 µM, the TGI (UACC-62 melanoma) was 9.87 µM and the TGI (UO-31 renal) was 7.88 µM. The TGI (XF 498 CNS) was 4.02 µM.

— PubChem BioAssay (NCI)
